As a reminder, the Papp is the rate of passage across a membrane or cell layer, normalised by area and donor concentration. Read a high Papp as fast passage. By microsomal CLint is commonly meant the capacity of the preparation to metabolise the compound, expressed as a volume cleared per time. Higher therefore signals rapid turnover.

Counter-ions that a name gives are not always drawn. Starred links: 1 amine or outer side, 2 acyl side, 3 side chain; linkers in the order of their positions; H or OH if unused. Positions of bridges follow the written chain, without caps; N, C: chain ends. Non-standard residues stand in square brackets, D forms with d. Residues, ends and D or L forms follow the SMILES beside them. ξ: configuration not given here. *: point of attachment. NMeF = CN[C@@H](Cc1ccccc1)C(=O)O; NMeI = CC[C@H](C)[C@H](NC)C(=O)O; NMeβAla = CN(CCC(=O)[*:2])[*:1]; NMeL = CN[C@@H](CC(C)C)C(=O)O; NMeV = CN[C@H](C(=O)O)C(C)C; NMeA = CN[C@@H](C)C(=O)O; Piperidide = C1CCN(*)CC1; dNMeA = CN[C@H](C)C(=O)O; ξD = NC(CC(=O)O)C(=O)O; ξT = CC(O)C(N)C(=O)O; Sar = CNCC(=O)O; tBu = CC(C)(C)*

Data set [1] in a line: PAMPA (parallel artificial membrane permeability assay). The conditions noted are these: PAMPA, pH 6.5. In kind it is in vitro ADME. The procedure, abridged: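 Artificial membrane was 10% (w/v) egg lecithin plus 0.5% (w/v) cholesterol in dodecane on a PVDF filter. A 10 mM DMSO stock was added at 0.5% (v/v) to donor buffer (50 mM MOPSO, pH 6.5, 5.0% glycocholic acid). After 18 h at 37 °C, LC/MS or LC/UV gave donor and acceptor levels for Pe.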
(In general: The PAMPA barrier holds no transporters, so it reflects passive diffusion.)

A short description of data set [2]: Metabolic stability in human hepatic microsome. The conditions noted are these: for microsomal CLint at 1 uM: human, microsomes, pH 7.4, CL NADPH(+). In kind it is in vitro ADME.

`CC[C@H](C)[C@H]1C(=O)N[C@@H](CC(C)C)C(=O)N(C)CC(=O)N[C@@H]([C@@H](C)O)C(=O)N[C@@H](Cc2ccccc2)C(=O)N[C@@H](C)C(=O)N(C)[C@@H](CC(C)C)C(=O)N[C@@H](Cc2ccccc2)C(=O)N[C@@H](C(C)C)C(=O)N[C@H](C(=O)N2CCCCC2)CC(=O)N[C@@H](C)C(=O)N[C@@H](CC(C)C)C(=O)N1C` [DP-35] (AL[NMeI]L[Sar]TFA[NMeL]FVD-Piperidide; lactam N-12) displayed an apparent permeability (Papp) at 18 hours, 50 µM in data set [1] of 12 ×10⁻⁶ cm/s. For the same molecule, the microsomal CLint at 1 uM in data set [2] was 32 µL/min/mg.
In turn, `CC[C@H](C)[C@H]1C(=O)N[C@H](C(=O)N2CCCCC2)CC(=O)N[C@@H](C)C(=O)N(C)[C@@H](Cc2ccccc2)C(=O)N(C)[C@@H](CC(C)C)C(=O)N[C@@H]([C@@H](C)O)C(=O)N(C)CC(=O)N(C)[C@@H](CC(C)C)C(=O)N[C@@H](COC(C)(C)C)C(=O)N1C` [DP-37] (A[NMeF][NMeL]T[Sar][NMeL]S(tBu)[NMeI]D-Piperidide; lactam N-9) gave a Papp at 18 hours, 50 µM in data set [1] of 31 ×10⁻⁶ cm/s. The same molecule came in with a microsomal CLint at 1 uM in data set [2] of 156 µL/min/mg.
For `CC(C)C[C@H]1C(=O)N[C@@H](COC(C)(C)C)C(=O)N[C@H](C(=O)N2CCCCC2)CC(=O)N[C@@H](C)C(=O)N(C)[C@@H](C)C(=O)N(C)[C@@H](Cc2ccccc2)C(=O)N(C)[C@@H](CC(C)C)C(=O)N[C@@H]([C@@H](C)O)C(=O)N(C)CC(=O)N1C` [DP-38] (A[NMeA][NMeF][NMeL]T[Sar][NMeL]S(tBu)D-Piperidide; lactam N-9) the same measures were 16 ×10⁻⁶ cm/s and 55 µL/min/mg.
On to `CC(C)C[C@H]1C(=O)N[C@@H](COC(C)(C)C)C(=O)N[C@H](C(=O)N2CCCCC2)CC(=O)N(C)[C@@H](C)C(=O)N(C)[C@@H](C)C(=O)N(C)[C@@H](Cc2ccccc2)C(=O)N(C)[C@@H](CC(C)C)C(=O)N[C@@H]([C@@H](C)O)C(=O)N(C)CC(=O)N1C` [DP-39] ([NMeA][NMeA][NMeF][NMeL]T[Sar][NMeL]S(tBu)D-Piperidide; lactam N-9), for which the apparent permeability coefficient (Papp) at 18 hours, 50 µM in data set [1] amounted to 16 ×10⁻⁶ cm/s. For the same molecule, in data set [2] (human hepatic microsome, NADPH(+)), the “CL NADPH(+)” value stood at 67.
Regarding `CC[C@H](C)[C@H](NC(=O)[C@@H]1CC(=O)N[C@@H](C)C(=O)N[C@@H](CC(C)C)C(=O)N2CCC[C@H]2C(=O)N[C@@H](C)C(=O)N[C@@H](CC(C)C)C(=O)N(C)CC(=O)N[C@@H]([C@@H](C)O)C(=O)N[C@@H](Cc2ccccc2)C(=O)N[C@@H](CC(C)C)C(=O)N(C)[C@@H](Cc2ccccc2)C(=O)N[C@@H](C(C)C)C(=O)N1)C(=O)N1CCCCC1` [DP-40] (ALPAL[Sar]TFL[NMeF]VDI-Piperidide; lactam N-12), in data set [1], the Papp at 18 hours, 50 µM was found to be 5.8 ×10⁻⁶ cm/s. The molecule also had a microsomal CLint at 1 uM in data set [2] of 38 µL/min/mg.
In the case of `CC[C@H](C)[C@H](NC(=O)[C@H](CC(C)C)NC(=O)[C@@H]1CC(=O)N[C@@H](C)C(=O)N[C@@H](CC(C)C)C(=O)N[C@@H](Cc2ccccc2)C(=O)N[C@@H](CC(C)C)C(=O)N[C@@H]([C@@H](C)O)C(=O)N2CCC[C@H]2C(=O)N(C)CC(=O)N[C@@H](Cc2ccccc2)C(=O)N[C@@H](C(C)C)C(=O)N(C)[C@@H](C)C(=O)N1)C(=O)N1CCCCC1` [DP-41] (ALFLTP[Sar]FV[NMeA]DLI-Piperidide; lactam N-11), the Papp at 18 hours, 50 µM in data set [1] was 11 ×10⁻⁶ cm/s. The molecule also showed a microsomal CLint at 1 uM in data set [2] of 72 µL/min/mg.
The matching figures for `CC[C@H](C)[C@H](NC(=O)[C@@H]1CC(=O)N[C@@H](C)C(=O)N[C@@H]([C@@H](C)O)C(=O)N[C@@H](CC(C)C)C(=O)N2CCC[C@H]2C(=O)N[C@@H](Cc2ccccc2)C(=O)N(C)[C@@H](Cc2ccccc2)C(=O)N(C)[C@@H](C(C)C)C(=O)N[C@@H](C)C(=O)N(C)[C@@H](CC(C)C)C(=O)N1)C(=O)N1CCCCC1` [DP-44] (ATLPF[NMeF][NMeV]A[NMeL]DI-Piperidide; lactam N-10): 20 ×10⁻⁶ cm/s and 59 µL/min/mg.
The matching figures for `CC[C@H](C)[C@H]1C(=O)N[C@@H](C)C(=O)N(C)[C@@H](Cc2ccccc2)C(=O)N[C@@H]([C@@H](C)O)C(=O)N(C)CC(=O)N(C)[C@@H](Cc2ccccc2)C(=O)N(C)[C@@H](CC(C)C)C(=O)N[C@H](C(=O)N2CCCCC2)CC(=O)N(C)CCC(=O)N[C@@H](CC(C)C)C(=O)N(C)[C@@H](CC(C)C)C(=O)N1C` [DP-48] ([NMeβAla]L[NMeL][NMeI]A[NMeF]T[Sar][NMeF][NMeL]D-Piperidide; lactam N-11): 33 ×10⁻⁶ cm/s and 32 µL/min/mg.
For `CC[C@H](C)[C@H]1C(=O)N(C)[C@@H](CC(C)C)C(=O)N[C@H](C(=O)N2CCCCC2)CC(=O)N(C)[C@H](C)C(=O)N(C)[C@@H](CC(C)C)C(=O)N[C@@H](CC(C)C)C(=O)N(C)[C@@H](Cc2ccccc2)C(=O)N[C@@H](COC(C)(C)C)C(=O)N(C)[C@@H](Cc2ccccc2)C(=O)N[C@@H]([C@@H](C)O)C(=O)N(C)[C@@H](C)C(=O)N1C` [DP-49] ([dNMeA][NMeL]L[NMeF]S(tBu)[NMeF]T[NMeA][NMeI][NMeL]D-Piperidide; lactam N-11) the same measures were 18 ×10⁻⁶ cm/s and 51 µL/min/mg.
In data set [1], `CC(C)C[C@H]1C(=O)N(C)[C@@H](CC(C)C)C(=O)NC(C(C)O)C(=O)N(C)[C@@H](Cc2ccccc2)C(=O)NCC(=O)N(C)[C@@H](C(C)C)C(=O)N[C@@H](Cc2ccccc2)C(=O)NC(C(=O)N2CCCCC2)CC(=O)N(C)CCC(=O)N[C@@H](COC(C)(C)C)C(=O)N1C` (stereo partly shown) [DP-50] ([NMeβAla]S(tBu)[NMeL][NMeL][ξT][NMeF]G[NMeV]F[ξD]-Piperidide; lactam N-10) came in with a Papp at 18 hours, 50 µM of 35 ×10⁻⁶ cm/s. Further, the microsomal CLint at 1 uM in data set [2] came to 80 µL/min/mg.
For `CC[C@H](C)[C@@H]1NC(=O)[C@H](C)N(C)C(=O)[C@@H](C)N(C)C(=O)C[C@@H](C(=O)N2CCCCC2)NC(=O)[C@H](CC(C)C)N(C)C(=O)[C@H](C)N(C)C(=O)[C@H](Cc2ccccc2)N(C)C(=O)[C@H]([C@@H](C)O)NC(=O)[C@H](Cc2ccccc2)N(C)C(=O)[C@H](CC(C)C)N(C)C1=O` [DP-51] ([dNMeA][NMeA]I[NMeL][NMeF]T[NMeF][NMeA][NMeL]D-Piperidide; lactam N-10) the same measures were 34 ×10⁻⁶ cm/s and 96 µL/min/mg.
For `CC(C)C[C@H]1C(=O)NCC(=O)N[C@H](C(=O)N2CCCCC2)CC(=O)N[C@H](C)C(=O)N[C@@H]([C@@H](C)O)C(=O)N(C)[C@@H](C)C(=O)N(C)[C@@H](Cc2ccccc2)C(=O)N[C@@H](COC(C)(C)C)C(=O)N(C)[C@@H](Cc2ccccc2)C(=O)N1C` [DP-52] ([dA]T[NMeA][NMeF]S(tBu)[NMeF][NMeL]GD-Piperidide; lactam N-9) the same measures were 23 ×10⁻⁶ cm/s and 136 µL/min/mg.
The molecule `CC[C@H](C)[C@H]1C(=O)N[C@H](C(=O)N2CCCCC2)CC(=O)N[C@H](C)C(=O)N[C@@H]([C@@H](C)O)C(=O)N(C)[C@@H](Cc2ccccc2)C(=O)N[C@@H](CC(C)C)C(=O)N(C)[C@@H](C)C(=O)N[C@@H](C(C)C)C(=O)N[C@@H](Cc2ccccc2)C(=O)N(C)[C@@H](CC(C)C)C(=O)N[C@@H](CC(C)C)C(=O)NCC(=O)N1C` [DP-53] ([dA]T[NMeF]L[NMeA]VF[NMeL]LG[NMeI]D-Piperidide; lactam N-12) returned a Papp at 18 hours, 50 µM in data set [1] of 30 ×10⁻⁶ cm/s. The intrinsic metabolic clearance (microsomal CLint) at 1 uM in data set [2] is 60 µL/min/mg.
For `CC[C@H](C)[C@H]1C(=O)N(C)[C@@H](Cc2ccccc2)C(=O)NCC(=O)N[C@@H]([C@@H](C)O)C(=O)N[C@@H](Cc2ccccc2)C(=O)N(C)[C@@H](CC(C)C)C(=O)N2CCC[C@H]2C(=O)N[C@H](C(=O)N2CCCCC2)CC(=O)N[C@H](C)C(=O)N[C@@H](CC(C)C)C(=O)N(C)[C@@H](C)C(=O)N[C@@H](CC(C)C)C(=O)N1C` [DP-54] ([dA]L[NMeA]L[NMeI][NMeF]GTF[NMeL]PD-Piperidide; lactam N-12) the same measures were 15 ×10⁻⁶ cm/s and 13 µL/min/mg.
For `CC[C@H](C)[C@H]1C(=O)N[C@@H](C)C(=O)N[C@H](C(=O)N2CCCCC2)CC(=O)N[C@H](C(C)C)C(=O)N[C@@H](Cc2ccccc2)C(=O)N(C)CC(=O)N[C@@H](CC(C)C)C(=O)N[C@@H](Cc2ccccc2)C(=O)N2CCC[C@H]2C(=O)N[C@@H]([C@@H](C)O)C(=O)N[C@@H](COC(C)(C)C)C(=O)N(C)[C@@H](CC(C)C)C(=O)N1C` [DP-55] ([dV]F[Sar]LFPTS(tBu)[NMeL][NMeI]AD-Piperidide; lactam N-12) the same measures were 21 ×10⁻⁶ cm/s and 79 µL/min/mg.
For `CC[C@H](C)[C@H]1C(=O)N[C@H](C(=O)N2CCCCC2)CC(=O)N[C@H](C(C)C)C(=O)N[C@@H]([C@@H](C)O)C(=O)N(C)CC(=O)N[C@@H](CC(C)C)C(=O)N2CCC[C@H]2C(=O)N(C)[C@@H](C(C)C)C(=O)N[C@@H](Cc2ccccc2)C(=O)N(C)[C@@H](Cc2ccccc2)C(=O)N(C)[C@@H](CC(C)C)C(=O)N[C@@H](C)C(=O)N1C` [DP-56] ([dV]T[Sar]LP[NMeV]F[NMeF][NMeL]A[NMeI]D-Piperidide; lactam N-12) the same measures were 30 ×10⁻⁶ cm/s and 43 µL/min/mg.
As for `CC[C@H](C)[C@H]1C(=O)N[C@@H](CC(C)C)C(=O)N2CCC[C@H]2C(=O)N[C@@H]([C@@H](C)O)C(=O)N(C)[C@@H](C)C(=O)N[C@@H](Cc2ccccc2)C(=O)N[C@H](C(=O)N2CCCCC2)CC(=O)N(C)[C@@H](C)C(=O)N[C@@H](Cc2ccccc2)C(=O)N(C)[C@@H](CC(C)C)C(=O)N[C@@H](COC(C)(C)C)C(=O)NCC(=O)N1C` [DP-57] ([NMeA]F[NMeL]S(tBu)G[NMeI]LPT[NMeA]FD-Piperidide; lactam N-12), in data set [1], the Papp at 18 hours, 50 µM came to 26 ×10⁻⁶ cm/s. Besides, the microsomal CLint at 1 uM in data set [2] came to 23 µL/min/mg.

The record behind these values is patent publication US9409952B2, “Peptide-compound cyclization method” (Chugai Seiyaku Kabushiki Kaisha, priority 2011, dated 2016).
